# Test results reported in US12194093B2, “Dosing parameters for CD47 targeting therapies to hematologic malignancies” (The Board of Trustees of the Leland Stanford Junior …, priority 2017, dated 2025).
# Entries after “also recorded” stand apart in the source; their conditions may differ.
# Experiments:
# HL60 leukemia cells = assay: Macrophage phagocytosis of HL60 leukemia cells (flow cytometry); type: cell-based, human; details: azacitidine 1 μM
# Protocol: Macrophages were labeled with an anti-CD206 Ab and all cells were analyzed by flow cytometry to determine phagocytosis of HL60 leukemia cells. Phagocytosis of HL60 leukemia cells was determined as percentage of GFP positive, HL60 engulfing, macrophages compared to total number of macrophages. Results were normalized to the condition with maximal phagocytosis (100%).
# AML [1] = assay: AML Phase 1 trial, clinical response; type: in vivo, human
# Protocol: (§1) This trough level served as the minimum trough level target to guide dosing in the Phase 1 trial. […] Rapid peaks and troughs observed were consistent with target-mediated disposition due to non-linear saturation of the CD47 sink. […] Dose levels of 10 mg/kg or greater (Cohorts 3 and 4) achieve target trough levels by about 4 weeks, which is the time of first response assessment.
# Several additional factors are notable for these patients with biologic activity.
# human AML = assay: Human AML xenograft mouse model, early death and disease clearance; type: in vivo
# Description: We have established a human AML xenograft mouse model to test CD47-SIRPalpha pathway blocking therapies.
# We also observed that early death seemed to be related to burden of circulating disease, in that mice with high levels of circulating leukemia cells succumbed to early death.
# The object of this study was to determine whether early death observed in AML-xenografted mice can be avoided by reducing the rate at which leukemia cells are killed. […] It was hypothesized that early death might be due either to agglutination of leukemic cells or tumor lysis, and that early death may be avoided by reducing the rate at which leukemia cells are killed.
# All mice in the control group continuously progressed and died.
# circulating WBC = assay: AML Phase 1 trial, cytoreduction with concomitant Hu5F9-G4, safety; type: in vivo, human; details: any patients treated on Phase 1 trial
# AML [2] = assay: Pre-clinical models, trough level and anti-leukemic activity; type: in vivo
# Protocol: as §1
# (§2) Prospective testing of AML patients' molecular, chromosomal, and phenotypic characteristics by DNA sequencing, cytogenetic analysis/fluorescence in situ hybridization (FISH), and flow cytometry, can lead to identification of patients with greater responses to Hu5F9-G4.
# [3] = tested on: bone marrow macrophages and T cells; assay: Immunohistochemistry of macrophages and T cells in patient bone marrow; type: in vivo, human; details: patient with partial response
# Protocol: In one patient that obtained a partial response, macrophage and T cell infiltrates in the bone marrow was assessed.
# [4] = AML Phase 1 trial, serum concentrations of Hu5F9-G4; type: in vivo, human; details: patients
# Protocol: as §1
# myeloid mutations = assay: Targeted DNA sequencing of myeloid mutations in Phase 1 AML patients; type: in vivo, human; details: Phase 1 AML patients receiving Hu5F9-G4
# Description: as §2
compound,measurement,setting,value
Nc1ncn([C@@H]2O[C@H](CO)[C@@H](O)[C@H]2O)c(=O)n1 [Azacitidine],phagocytic elimination of HL60 leukemia cells by human macrophages,HL60 leukemia cells,did not enhance
Hu5F9-G4: a humanized anti-CD47 antibody,blast reduction,"AML [1]; Cohort 3, one patient with partial response",> 50%
same,RBC transfusion requirements,"AML [1]; Cohort 3, patient with partial response, month 3 and beyond of treatment",from approximately every week prior to treatment to once a month
same,duration of response,"AML [1]; Cohort 3, patient with partial response, ongoing",over 6 months
same,patients exhibiting biologic antileukemic activity,AML [1]; maximum of 10 mg/kg twice weekly (Cohort 3),two out of three
same,response to therapy,"AML [1]; patients, at or below 3 mg/kg (Cohorts 1 and 2)",not expected nor observed
same,"effect of intra-subject dose escalation (low doses first, then higher doses)",human AML; AML xenografted mice with high circulating burden,prevented early mortality but also resulted in safe clearance of leukemic cells
same,clearance of disease,"human AML; Cohort I, 100 μg/day for 14 days, sole surviving mouse",disease was cleared
same,clearance of disease,"human AML; Cohort III, 7 doses of 1 μg, 7 doses of 10 μg, 14 doses of 100 μg",noticeably diminished
same,relapse,"human AML; Cohort III, after end of treatment",relapsed several weeks after the end of treatment
same,effect of retreatment after relapse,human AML; groups that received dose-escalating regimen,cleared the disease and led to long-term disease free survival in some cases
same,early death,human AML; initial dose 1 μg (Cohort III),no early deaths and None
same,early death,human AML; initial dose 10 μg (Cohort II),1 of 5 and One mouse out of five
same,early death,human AML; initial dose 100 μg (Cohort I),Four out of five
same,survival of subsequent doses,"human AML; mouse, in vivo",remaining four mice survived
same,time to death after administration of the first dose,human AML; xenografted mice with very high circulating AML burden (>50% of total WBC) and marrow infiltration,≤ 1 h
same,acute death related to Hu5F9-G4,circulating WBC,No acute death
same,pre-clinical activity across AML subtypes,"AML [2]; monotherapy, cytogenetic, molecular, phenotypic/morphologic subtypes","monotherapy activity across a wide range of cytogenetic, molecular, and phenotypic AML subtypes; also recorded: broad pre-clinical activity across AML morphologic, molecular, and cytogenetic subtypes"
same,activity in relation to tumor burden,AML [2]; pre-clinical and initial clinical studies,enhanced activity in lower tumor burden of disease
same,trough level associated with efficacy,AML [2]; pre-clinical models,≥ 100 µg/mL
same,macrophages present in the marrow (CD68 or CD163 staining),[3]; week 4 of treatment,significant number of macrophages
same,"T cell infiltrates, of all bone marrow cells","[3]; week 8 of therapy, baseline 10-15% or 15%",40-50%
same,achievement of target trough levels (100 μg/ml),[4]; dose levels 3 mg/kg or less (Cohorts 1 and 2),did not achieve target trough levels
same,time to achieve target trough levels (100 μg/ml),[4]; dose levels of 10 mg/kg or greater (Cohorts 3 and 4),about 4 weeks
same,mutational burden (variant allele frequency),myeloid mutations,Reduction in mutational burden (variant allele frequency) was observed for some mutations over others
